Tests used:
[1] = target: T1, kappa opioid receptor (KOR) (Homo sapiens, UniProt P41145); assay: OPRKappa 1 Tango B-Arrestin Assay, antagonist mode (Tango OPRK1-bla U2OS cells, U50488 EC80 challenge); assay type: cell-based; conditions: for Selectivity (MOR/KOR): Kappa selectivity, MOR IC50 / KOR IC50; for IC50: antagonist mode, Tango OPRK1-bla U2OS cells, 6 nM U50488 challenge
T1 construct: host or cells: U2OS (Tango OPRK1-bla U2OS)
Method in brief: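 Tango OPRK1-bla U2OS cells, β-arrestin recruitment read as β-lactamase FRET (CCF4-AM, 460/590 nm emission). Compounds, 10-point 1:3 series from nominal 10 µM in quadruplicate, preincubated 30 min at 37 °C, then challenged with U50488 at 6 nM final (EC80) for 4 h; percent inhibition from median ratio.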

mu opioid receptor (MOR) = target: T2, mu opioid receptor (MOR) (Homo sapiens, UniProt P35372); assay: OPRMu1 Discover X β-arrestin Assay, antagonist mode (U2OS cells, DAMGO EC80 challenge); assay type: cell-based
T2 construct: host or cells: U2OS (Discover X OPRMu1-U2OS, PathHunter)
Method in brief: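 PathHunter U2OS cells with β-gal fragment-complementation readout for β-arrestin recruitment to OPRMu1. Cells were preincubated with compound (10-point, 1:3 series from nominal 10 micromolar) for 30 min at 37 °C, then challenged with 303 nM DAMGO (EC80) for 3 h. Luminescence gave percent inhibition.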

T2 sequence (P35372 whole entry): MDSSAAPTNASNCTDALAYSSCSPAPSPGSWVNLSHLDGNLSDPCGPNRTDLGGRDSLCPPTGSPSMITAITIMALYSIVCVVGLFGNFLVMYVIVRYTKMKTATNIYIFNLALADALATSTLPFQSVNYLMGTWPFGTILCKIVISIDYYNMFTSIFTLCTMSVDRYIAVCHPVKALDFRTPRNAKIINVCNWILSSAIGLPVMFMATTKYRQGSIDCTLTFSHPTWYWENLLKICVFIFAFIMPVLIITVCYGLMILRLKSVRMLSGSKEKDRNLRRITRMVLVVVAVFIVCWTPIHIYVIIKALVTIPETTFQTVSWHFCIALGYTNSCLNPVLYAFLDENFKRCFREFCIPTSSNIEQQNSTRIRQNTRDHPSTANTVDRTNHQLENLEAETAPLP
T1 sequence (P41145 whole entry): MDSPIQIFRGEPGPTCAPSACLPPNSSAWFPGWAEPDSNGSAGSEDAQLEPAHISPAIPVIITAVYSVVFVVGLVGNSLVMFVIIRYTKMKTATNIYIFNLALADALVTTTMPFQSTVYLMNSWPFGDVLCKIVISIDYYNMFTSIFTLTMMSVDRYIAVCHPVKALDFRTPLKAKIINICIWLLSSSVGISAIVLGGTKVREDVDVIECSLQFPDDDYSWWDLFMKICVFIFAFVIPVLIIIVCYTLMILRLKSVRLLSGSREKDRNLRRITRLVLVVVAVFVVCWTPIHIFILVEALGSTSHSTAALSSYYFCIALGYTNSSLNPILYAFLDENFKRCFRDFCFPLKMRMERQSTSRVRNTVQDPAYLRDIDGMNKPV

Row | IC50 [1] | IC50 (mu opioid receptor (MOR)) | Compound | Selectivity (MOR/KOR) [1]
1 | < 1 nM | 100 to 1000 nM | CCc1cc(F)c2nc(N3CC[C@@H](N[C@@H]4CCOC4)C[C@H]3C)c(-c3cc(C)no3)c(C)c2c1 [Compound 137] | ++++ (more than 1000-fold selectivity over MOR)
2 | < 1 nM | > 1000 nM | CCc1cc(F)c2nc(N3CC[C@@H](N[C@@H]4CCCOC4)[C@@H](C)C3)c(-c3ccn(C)n3)c(C)c2c1 [Compound 113] | ++++ (more than 1000-fold selectivity over MOR)
3 | 10 to 100 nM | > 1000 nM | CCc1cc(-c2ccnn2C)c2nc(N3CCN(C[C@H]4CCOC4)C[C@H]3C)c(-c3ccn(C)n3)c(C)c2c1 [Compound 98] | +++ (between 100- to 1000-fold selective)
4 | 10 to 100 nM | > 1000 nM | CCc1cc(F)c2nc(N3CCN(C(=O)[C@@H]4C[C@@H](O)CN4C)C[C@H]3C)c(-c3nc(C)no3)c(C)c2c1 [Compound 160] | +++ (between 100- to 1000-fold selective)
5 | 1 to 10 nM | 100 to 1000 nM | CCc1cc(F)c2nc(N3CCN(C(=O)CN4CCCC4)C[C@H]3C)c(-c3ccn(C)n3)c(C)c2c1 [Compound 173] | +++ (between 100- to 1000-fold selective)
6 | < 1 nM | 100 to 1000 nM | CCc1cc(-c2ccnn2C)c2nc(N3CCC(N[C@@H]4CCOC4)CC3)c(-c3ccn(C)n3)c(C)c2c1 [Compound 87] | +++ (between 100- to 1000-fold selective)
7 | ≥ 100 nM | > 1000 nM | CCc1cc(F)c2nc(N3CCN(C(=O)[C@@H]4C[C@@H](O)CN4C)C[C@H]3C)c(-c3ccn(C)n3)c(C)c2c1 [Compound 177] | +++ (between 100- to 1000-fold selective)
8 | 1 to 10 nM | > 1000 nM | CCc1cc(F)c2nc(N3CCN(C(=O)[C@@H](C)N(CC)CC)C[C@H]3C)c(-c3nc(C)no3)c(C)c2c1 [Compound 155] | +++ (between 100- to 1000-fold selective)
9 | 10 to 100 nM | > 1000 nM | CCc1cc(F)c2nc(N3CC[C@@H](N[C@@H]4CCCOC4)C[C@@H]3C)c(-c3cc(C)no3)c(C)c2c1 [Compound 143] | ++++ (more than 1000-fold selectivity over MOR)
10 | 10 to 100 nM | > 1000 nM | CCc1cc(F)c2nc(N3CC[C@H](N[C@@H]4CCOC4)[C@H](C)C3)c(-c3ccn(C)n3)c(C)c2c1 [Compound 107] | +++ (between 100- to 1000-fold selective)
11 | 10 to 100 nM | > 1000 nM | CCc1cc(F)c2nc(N3CCN(C[C@@H]4CCOC4)C[C@H]3C)c(-c3nc(C)no3)c(C)c2c1 [Compound 203] | +++ (between 100- to 1000-fold selective)
12 | 1 to 10 nM | > 1000 nM | CCc1cc(F)c2nc(N3CCN(C(=O)[C@H]4CCCCN4C)C[C@H]3C)c(-c3nc(C)no3)c(C)c2c1 [Compound 189] | ++++ (more than 1000-fold selectivity over MOR)
13 | 1 to 10 nM | 100 to 1000 nM | CCc1cc(F)c2nc(N3CCN(C(=O)CN4CC[C@@H](F)C4)C[C@H]3C)c(-c3nc(C)no3)c(C)c2c1 [Compound 149] | +++ (between 100- to 1000-fold selective)
14 | ≥ 100 nM | > 1000 nM | COc1cc(F)c2nc(N3CCN(CC4CCOCC4)C[C@H]3C)c(-c3nc(C)no3)c(C)c2c1 [Compound 37, (R)-5-(8-fluoro-6-methoxy-4-methyl-2-(2-methyl-4-((tetrahydro-2H-pyran-4-yl)methyl)piperazin-1-yl)quinolin-3-yl)-3-methyl-1,2,4-oxadiazole] | ++ (between 10- and 100-fold selectivity)
15 | 10 to 100 nM | > 1000 nM | CCc1cc(F)c2nc(N3CC[C@@H](N[C@@H]4CCOC4)C[C@@H]3C)c(-c3cc(C)no3)c(C)c2c1 [Compound 138] | +++ (between 100- to 1000-fold selective)
16 | 1 to 10 nM | 100 to 1000 nM | CCc1cc(F)c2nc(N3CCC(N[C@@H]4CCOC[C@@H]4F)CC3)c(-c3cc(C)n(C)n3)c(C)c2c1 [Compound 14, 1-(3-(1,5-dimethyl-1H-pyrazol-3-yl)-6-ethyl-8-fluoro-4-methylquinolin-2-yl)-N-((3R,4R)-3-fluorotetrahydro-2H-pyran-4-yl)piperidin-4-amine] | +++ (between 100- to 1000-fold selective)
17 | ≥ 100 nM | > 1000 nM | CCc1cc(F)c2nc(N3CC[C@@H]4[C@@H](CCN4C[C@@H]4CCOC4)C3)c(-c3ccn(C)n3)c(C)c2c1 (stereo in doubt) [Compound 127] | +++ (between 100- to 1000-fold selective)
18 | < 1 nM | 10 to 100 nM | CCc1cc(-c2cc(C)nn2C)c2nc(N3CCC(N[C@H]4CCOC4)CC3)c(-c3ccn(C)n3)c(C)c2c1 [Compound 94] | +++ (between 100- to 1000-fold selective)
19 | 1 to 10 nM | > 1000 nM | CCc1cc(F)c2nc(N3CCN(C(=O)[C@@H](C)N(CC)CC)C[C@H]3C)c(-c3cc(C)no3)c(C)c2c1 [Compound 180] | +++ (between 100- to 1000-fold selective)
20 | 1 to 10 nM | 100 to 1000 nM | CCc1cc(-c2ccnn2C)c2nc(N3CCN(CC4CCOCC4)C[C@H]3C)c(-c3ccn(C)n3)c(C)c2c1 [Compound 62] | +++ (between 100- to 1000-fold selective)

Second part, the compound before the results:

Row | Compound | IC50 [1] | IC50 (mu opioid receptor (MOR)) | Selectivity (MOR/KOR) [1]
21 | CCc1cc(-c2ccnn2C)c2nc(N3CCN(C[C@@H]4CCOC4)C[C@H]3C)c(-c3ccn(C)n3)c(C)c2c1 [Compound 97] | 1 to 10 nM | > 1000 nM | +++ (between 100- to 1000-fold selective)
22 | CCc1cc(F)c2nc(N3CC[C@@H](NC[C@@H]4CCOC4)[C@@H](F)C3)c(-c3ccn(C)n3)c(C)c2c1 [Compound 204] | < 1 nM | 100 to 1000 nM | ++++ (more than 1000-fold selectivity over MOR)
23 | CCc1cc(F)c2nc(N3CC[C@@H]4[C@@H](CCN4[C@@H]4CCOC4)C3)c(-c3ccn(C)n3)c(C)c2c1 [Compound 123] | 10 to 100 nM | > 1000 nM | +++ (between 100- to 1000-fold selective)
24 | CCc1cc(F)c2nc(N3CC[C@@H](N[C@H]4CCOC4)[C@@H](F)C3)c(-c3ccn(C)n3)c(C)c2c1 [Compound 193, (3S,4R)-1-(6-ethyl-8-fluoro-4-methyl-3-(1-methyl-1H-pyrazol-3-yl)quinolin-2-yl)-3-fluoro-N—((S)-tetrahydrofuran-3-yl)piperidin-4-amine] | < 1 nM | > 1000 nM | ++++ (more than 1000-fold selectivity over MOR)
25 | CCc1cc(F)c2nc(N3[C@H](C)CN(C(=O)CN4CCCC4)C[C@H]3C)c(-c3nc(C)no3)c(C)c2c1 [Compound 161] | < 1 nM | 100 to 1000 nM | +++ (between 100- to 1000-fold selective)
26 | CCc1cc(F)c2nc(N3CC[C@@H]4[C@@H](CCN4[C@@H]4CCCOC4)C3)c(-c3ccn(C)n3)c(C)c2c1 [Compound 124] | 10 to 100 nM | > 1000 nM | +++ (between 100- to 1000-fold selective)
27 | CCc1cc(F)c2nc(N3CCNC4CC43)c(-c3nc(C)no3)c(C)c2c1 (centres unmarked) [Compound 64] | ≥ 100 nM | > 1000 nM | ++ (between 10- and 100-fold selectivity)
28 | CCc1cc(F)c2nc(N3CCN([C@@H]4CCOC4)C[C@H]3C)c(-c3nc(C)no3)c(C)c2c1 [Compound 31] | ≥ 100 nM | > 1000 nM | ++ (between 10- and 100-fold selectivity)
29 | CCc1cc(F)c2nc(N3CCN(C(=O)[C@@H]4CCCN4C)C[C@H]3C)c(-c3nc(C)no3)c(C)c2c1 [Compound 46] | 10 to 100 nM | > 1000 nM | +++ (between 100- to 1000-fold selective)
30 | CCc1cc(-c2ccnn2C)c2nc(N3CCC(N4CCOC[C@@H]4C)CC3)c(-c3ccn(C)n3)c(C)c2c1 [Compound 92] | > 1000 nM | > 1000 nM | –
31 | CCc1cc(F)c2nc(N3CCN(C(=O)[C@H](C)N(CC)CC)C[C@H]3C)c(-c3nc(C)no3)c(C)c2c1 [Compound 158] | 1 to 10 nM | > 1000 nM | ++++ (more than 1000-fold selectivity over MOR)
32 | CCc1cc(F)c2nc(N3CCN(C[C@@H]4CCOC4)C[C@H]3C)c(-c3ccn(C)n3)c(C)c2c1 [Compound 57] | ≥ 100 nM | > 1000 nM | ++ (between 10- and 100-fold selectivity)
33 | CCc1cc(F)c2nc(N3CCN(CC4CCOCC4)[C@@H](C)C3)c(-c3nc(C)no3)c(C)c2c1 [Compound 38, (S)-5-(6-ethyl-8-fluoro-4-methyl-2-(3-methyl-4-((tetrahydro-2H-pyran-4-yl)methyl)piperazin-1-yl)quinolin-3-yl)-3-methyl-1,2,4-oxadiazole] | 10 to 100 nM | > 1000 nM | ++ (between 10- and 100-fold selectivity)
34 | CCc1cc(F)c2nc(N3CCC(N[C@@H]4COC[C@@H]4F)CC3)c(-c3ccn(C)n3)c(C)c2c1 [Compound 71, 1-(6-ethyl-8-fluoro-4-methyl-3-(1-methyl-1H-pyrazol-3-yl)quinolin-2-yl)-N-((3R,4R)-4-fluorotetrahydrofuran-3-yl)piperidin-4-amine] | 1 to 10 nM | > 1000 nM | +++ (between 100- to 1000-fold selective)
35 | CCc1cc(-c2ccn(C)n2)c2nc(N3CCC(NC4CC(F)(F)C4)CC3)c(-c3nc(C)no3)c(C)c2c1 [Compound 103] | 1 to 10 nM | > 1000 nM | +++ (between 100- to 1000-fold selective)

From patent US20260115185A1, “QUINOLINE DERIVATIVES WHICH ACT AS KAPPA-OPIOID RECEPTOR ANTAGONISTS” (The Scripps Research Institute, priority 2023, published 2026)
